Source: publication PMC12622528, “Discovery of a Baloxavir‐Inspired Endonuclease Inhibitor That Prevents Herpes Simplex Virus 1 Replication in Cell Culture and In Vivo” (Advanced Science, 2025)

What was measured:
[1] = Cell viability (MTT) in Vero cells; settings: African green monkey
BALB/c mice = settings: oral, five consecutive days, LN‐7 25, 50, 75 mg kg−1, acyclovir 50 mg kg−1, 12 days
Description: BALB/c mice were purchased from Charles River Laboratories Spain and maintained at the Animal Facility of the CBM (Madrid, Spain). The toxicity of the test compound LN‐7 was investigated in BALB/c mice dosed as a solution at 25, 50, and 75 mg kg^−1. The compound was formulated in 3% DMSO + 10% solutol HS‐15 + 87% double‐distilled water (20 mg mL^−1). Animals had free access to food and water throughout each study. […] Compounds were orally administered for five consecutive days. Animals were monitored daily for clinical signs (piloerection, lethargy, eye closure), body weight loss, and survival. Oral administration and symptom monitoring was performed by researchers that were aware of the treatment condition (group allocation) for each animal. […] Animals with score 4 were defined as the humane endpoint on which the animal must be euthanized. On day 12, mice were sacrificed and whole blood was obtained by cardiac puncture. Several parameters were analyzed to monitor renal, hepatic, and immunological basic profiles. Body weight was also monitored to exclude weight loss or lack of weight gain that would be indicative of toxicity.

HSV‐1 = HSV‐1 infection model in BALB/c mice; assay type: in vivo; settings: for clinical symptoms of the infection / morbidity: oral LN‐7 75 mg kg−1 or acyclovir 50 mg kg−1; for survival: 8 days postinfection
[2] = test system: ACV‐resistant HSV‐1 strain F‐TKGF; assay: Antiviral assay, ACV‐resistant HSV‐1 strain F‐TKGF in Vero cells; settings: Human alphaherpesvirus 1, Vero, read-out: EC50 against ACV‐resistant strain F‐TKGF
HSV‐1 pUL15C = HSV‐1 pUL15C (Human herpesvirus 1, UniProt P04295); assay: HSV‐1 pUL15C nuclease inhibition enzymatic assay (32P‐labeled 33‐bp dsDNA substrate); assay type: biochemical; settings: for IC50: concentration required to inhibit by 50% the pUL15C nuclease activity, 37 °C, 1 mM MnCl2, 15 min; for inhibition at 50 µM: read-out: percentage inhibition of pUL15C nuclease activity at the highest concentration tested
Sequence of HSV‐1 pUL15C (P04295 471-735): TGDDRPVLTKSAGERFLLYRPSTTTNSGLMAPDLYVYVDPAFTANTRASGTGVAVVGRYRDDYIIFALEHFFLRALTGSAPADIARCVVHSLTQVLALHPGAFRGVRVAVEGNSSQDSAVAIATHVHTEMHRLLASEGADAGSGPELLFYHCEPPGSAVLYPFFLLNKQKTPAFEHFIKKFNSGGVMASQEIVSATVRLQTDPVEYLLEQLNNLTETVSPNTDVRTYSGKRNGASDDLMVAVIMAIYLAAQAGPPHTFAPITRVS

[3] = Pharmacokinetics studies in rats; assay type: in vivo; settings: male, Sprague-Dawley, plasma, rat
Description: Six male Sprague‐Dawley rats (180–200 g) were randomly divided into two groups to receive […] of LN‐7 at 2 mg kg^−1 (iv administration) or 10 mg kg^−1 (po administration). LN‐7 was dissolved in DMSO, and then diluted at a concentration of 1 mg mL^−1 in 3% DMSO, 10% solutol HS‐15, and 87% double‐distilled water for dosing. Rats were purchased from Beijing Vital River Laboratory Animal Technology Co., Ltd. (Qualification No. SCXK(SH) 2021‐0011). Animals were subjected to 12 h alternating light and dark cycles, ad libitum access to drinking water and food, and fasting for 12 h prior to the initiation of treatments. For the oral dose at 10 mg kg^−1, blood samples were collected at 0.083, 0.25, 0.5, 1, 2, 4, 6, 8, and 24 h postadministration. For the intravenous dose (at 2 mg kg^−1), blood samples were collected at 0.083, 0.25, 0.5, 1, 2, 4, 6, 8, and 24 h postadministration. Twenty µL of blood were mixed with a 200 µL solution of methanol:acetonitrile (1:1), vortexed for 5 min, and centrifuged (4000 rpm, 4 °C, 10 min) to obtain plasma within 30 min of sampling. The supernatant was analyzed by liquid chromatography–tandem mass spectrometry. Chromatographic separation was performed using an ACQUITY UPLC HSS T3 column (2.1 × 50 mm, 1.8 µm). […] Gradient elution was carried out at a flow rate of 0.8 mL min^−1. […] Mass spectrometric detection was performed with an electrospray ionization source operating in positive ion mode. Quantification was achieved using multiple reaction monitoring with the following transitions: m/z 403.15.
Pharmacokinetic parameters such as AUC, T 1/2, and C max were calculated with the WinNonlin software.

[4] = test system: recombinant HSV‐2 GFP strain; settings: Human alphaherpesvirus 2, Vero, read-out: EC50 against recombinant HSV‐2 GFP strain
[5] = test system: HSV‐2 strains G and Lovelace; assay: Antiviral assay, HSV‐2 strains G and Lovelace in Vero cells (viral titer, TCID50); settings: 10 µM, 24 h post‐infection
[6] = treatment after infection, days 0-3 p.i., LN‐7 75 mg kg−1, acyclovir 50 mg kg−1 or both

Structure (SMILES): O=C1c2c(O)c(=O)ccn2N(Cc2ccc(Cl)c(F)c2)[C@@H]2COCCN12 [Compound 10]
- CC50 at 24 h ([1]; Vero cells): > 100 µM

Structure (SMILES): Nc1nc2c(ncn2COCCO)c(=O)[nH]1 [Acyclovir (ACV), Acyclovir, reference compound]
- toxic symptoms or mortality (BALB/c mice): did not show any toxic symptoms or mortality
- clinical symptoms of the infection / morbidity (HSV‐1; prophylactic setting): Clinical symptoms of the infection were observed
- clinical symptoms (HSV‐1; [6]): clinical symptoms were alleviated
- piloerection (HSV‐1; [6]): piloerection was observed
- survival (HSV‐1; [6]): survived until the end of the experiment
- CC50 at 24 h ([1]; Vero cells): > 100 µM
- EC50 [2]: > 20 µM

Structure (SMILES): O=C1c2c(O)c(=O)ccn2N(Cc2ccc(C(F)(F)F)cc2)[C@@H]2COCCN12 [Compound 7]
- CC50 at 24 h ([1]; Vero cells): > 100 µM

Structure (SMILES): O=C1c2c(O)c(=O)ccn2N(Cc2ccc(-c3ccco3)cc2)[C@@H]2COCCN12 [Compound 16, (R)-12-(4-(furan-2-yl)benzyl)-7-hydroxy-3,4,12,12a-tetrahydro-1H-[1,4] oxazi no[3,4-c] pyrido[2,1-f] [1,2,4] triazine-6,8-dione]
- CC50 at 24 h ([1]; Vero cells): > 100 µM

Structure (SMILES): O=C1c2c(O)c(=O)ccn2N(Cc2ccc(-c3ccc(F)cc3)cc2)[C@@H]2COCCN12 [Compound 30]
- CC50 at 24 h ([1]; Vero cells): > 66.5 µM

Structure (SMILES): COc1ccc(-c2ccc(CN3[C@@H]4COCCN4C(=O)c4c(O)c(=O)ccn43)cc2)cc1 [Compound 33]
- IC50 (HSV‐1 pUL15C): 19.4 ± 1.3 µM

Structure (SMILES): O=C(Nc1ccccc1)c1ccc(-c2ccc(CN3[C@@H]4COCCN4C(=O)c4c(O)c(=O)ccn43)cc2)cc1 [Compound 40]
- inhibition at 50 µM (HSV‐1 pUL15C): 42.7%
- IC50 (HSV‐1 pUL15C): > 30 µM

Structure (SMILES): O=C1c2c(O)c(=O)ccn2N(Cc2ccc(-c3ccc4[nH]ccc4c3)cc2)[C@@H]2COCCN12 [Compound 19]
- inhibition at 50 µM (HSV‐1 pUL15C): 51.5%
- IC50 (HSV‐1 pUL15C): > 30 µM

Structure (SMILES): COC(=O)OCOc1c2n(ccc1=O)N([C@@H]1c3ccccc3SCc3c1ccc(F)c3F)[C@@H]1COCCN1C2=O [Baloxavir marboxil, reference compound]
- CC50 at 24 h [1]: > 100 µM

Structure (SMILES): O=C1c2c(O)c(=O)ccn2N(Cc2ccc(-c3ccc(OC(F)(F)F)cc3)cc2)[C@@H]2COCCN12 [Compound 34]
- CC50 at 24 h ([1]; Vero cells): > 52.8 µM

Structure (SMILES): O=C1c2c(O)c(=O)ccn2N(Cc2ccc3ccc4cccc5ccc2c3c45)[C@@H]2COCCN12 [Compound 12]
- inhibition at 50 µM (HSV‐1 pUL15C): 65.4%
- IC50 (HSV‐1 pUL15C): > 30 µM

Structure (SMILES): O=C1c2c(O)c(=O)ccn2N([C@@H]2c3ccccc3SCc3c2ccc(F)c3F)[C@@H]2COCCN12 [Baloxavir acid, reference compound]
- CC50 at 24 h [1]: > 100 µM

Structure (SMILES): O=C1c2c(O)c(=O)ccn2N(Cc2ccc(-c3ccc(Cl)cc3)cc2)[C@@H]2COCCN12 [Compound 31]
- inhibition at 50 µM (HSV‐1 pUL15C): 48.1%
- IC50 (HSV‐1 pUL15C): > 30 µM

Structure (SMILES): O=C1c2c(O)c(=O)ccn2N(Cc2ccc(-c3ccccc3)cc2)[C@@H]2COCCN12 [Compound 17, (R)-12-([1,1'-biphenyl] -4-ylmethyl)-7-hydroxy-3,4,12,12a-tet rahydro-1H-[1,4] oxazino[3,4-c] pyrido[2,1-f] [1,2,4] triazine-6,8-dione]
- AUC(0-inf) ([3]; IV 2 mg/Kg): 1230 ± 182 ng·h/mL
- Cmax ([3]; IV 2 mg/Kg): 782 ± 63.2 ng/mL
- Tmax ([3]; IV 2 mg/Kg): 0.0833 h
- clearance ([3]; IV 2 mg/Kg): 27.4 mL/min/kg
- half-life ([3]; IV 2 mg/Kg): 6.24 ± 1.24 h
- Vd ([3]; IV 2 mg/Kg, read-out: Vz): 15.1 ± 4.05 L/kg
- AUC(0-inf) ([3]; PO 10 mg/Kg): 2980 ± 763 ng·h/mL
- Cmax ([3]; PO 10 mg/Kg): 573 ± 152 ng/mL
- Tmax ([3]; PO 10 mg/Kg): 2 h
- half-life ([3]; PO 10 mg/Kg): 5.54 ± 0.676 h
- toxic symptoms or mortality (BALB/c mice): did not show any toxic symptoms or mortality
- HSV‐1 titers in lung, brain, olfactory bulb and spleen tissues (HSV‐1; prophylactic setting, oral LN‐7 75 mg kg−1, days −1 to 3 p.i., day 8 p.i.): decreased around one to two orders of magnitude
- clinical symptoms of the infection / morbidity (HSV‐1; prophylactic setting): morbidity was higher for the LN‐7‐treated animals
- clinical symptoms (HSV‐1; [6]): clinical symptoms were alleviated
- piloerection (HSV‐1; [6]): piloerection was observed
- survival (HSV‐1; [6]): survived until the end of the experiment
- viral titers in tissues (lungs, brain, olfactory bulb, kidneys, spleen) (HSV‐1; treatment after infection, days 0-3 p.i., LN‐7 75 mg kg−1, acyclovir 50 mg kg−1 or both, day 8 p.i.): significant reductions in the viral titers in all analyzed tissues of treated mice, except for kidney tissue
- CC50 at 24 h ([1]; Vero cells): 38.8 µM
- EC50 [2]: 3.2 ± 0.3 µM
- EC50 [4]: 3.6 ± 1.8 µM
- reduction in the viral titer [5]: reduction of two orders of magnitude

Structure (SMILES): CC(C)c1ccc(O)c(=O)c(O)c1 [β‐thujaplicinol, reference compound]
- CC50 at 24 h ([1]; Vero cells): > 100 µM

Structure (SMILES): O=C1c2c(O)c(=O)ccn2N(Cc2ccc(-c3ccc([N+](=O)[O-])cc3)cc2)[C@@H]2COCCN12 [Compound 32]
- inhibition at 50 µM (HSV‐1 pUL15C): 74.3%
- IC50 (HSV‐1 pUL15C): > 30 µM
